{"source": "the METLIN SMRT retention time set (Domingo-Almenara et al. 2019)", "experiment": "gradient 5% acetonitrile 3 min, to 50% in 2 min, to 85% in 15 min, held 3 min, 100 µL/min", "conditions": "column: Zorbax Extend-C18 2.1 x 50 mm; eluents: water / acetonitrile, 0.1% formic acid", "method_in_brief": "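Using water and acetonitrile that each contained 0.1% formic acid, mixtures of ~100 pure standards were separated at 100 μL/min on a Zorbax Extend-C18 column (2.1 × 50 mm, 1.8 μm). The HPLC fed a quadrupole time-of-flight mass spectrometer working in positive and negative ionization mode, with dead and dwell volumes of 40 μL and 900 μL. Data were acquired over 3 months. Retention time was read from computationally picked adduct peaks after manual inspection of each.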"}
{"smiles": "CCCn1nc(CNC(=O)CNC(C)=O)c2ccccc21", "values": [{"measurement": "RP-LC retention time", "value": 632, "unit": "s"}]}
{"smiles": "CC(C)C1c2nccn2CCCN1C(=O)c1ccc2c(c1)OCO2", "note": "(stereo unspecified)", "values": [{"measurement": "RP-LC retention time", "value": 603, "unit": "s"}]}
{"smiles": "Cc1ccc(Nc2c(-c3nc(C)no3)cnc3nc(C)ccc23)c(F)c1", "values": [{"measurement": "RP-LC retention time", "value": 793, "unit": "s"}]}
{"smiles": "Cc1ccc(-c2nnc(-c3ccc(Cl)c(S(=O)(=O)N4CCOCC4)c3)o2)cc1", "values": [{"measurement": "RP-LC retention time", "value": 1030, "unit": "s"}]}
{"smiles": "O=C1NC2=C(C(=O)CCC2)C(c2cccc([N+](=O)[O-])c2)N1", "note": "(stereo unspecified)", "values": [{"measurement": "RP-LC retention time", "value": 606, "unit": "s"}]}
{"smiles": "CCN1CCn2cc(S(=O)(=O)Nc3cc(C)ccc3C)cc2C1=O", "values": [{"measurement": "RP-LC retention time", "value": 752, "unit": "s"}]}
{"smiles": "COc1ccc(-c2nnc(COc3ccc(NC(=O)c4ccnc(Cl)c4)cc3)o2)cc1", "values": [{"measurement": "RP-LC retention time", "value": 868, "unit": "s"}]}
{"smiles": "COc1cccc(-c2nc(NCc3ccncc3)ncc2C(=O)O)c1", "values": [{"measurement": "RP-LC retention time", "value": 577, "unit": "s"}]}
{"smiles": "N#Cc1ccc(-c2cnc3[nH]cc(NC(=O)c4cccnc4)c3c2)cc1", "values": [{"measurement": "RP-LC retention time", "value": 738, "unit": "s"}]}
{"smiles": "O=C(C1CC(=O)N(c2ccc(F)cc2)C1)N1CCN(CCn2cccn2)CC1", "note": "(stereo unspecified)", "values": [{"measurement": "RP-LC retention time", "value": 556, "unit": "s"}]}
{"smiles": "Cc1nn(-c2nc(-c3ccc(Cl)cc3)cs2)c(C)c1CC(=O)N1CCCC1", "values": [{"measurement": "RP-LC retention time", "value": 1120, "unit": "s"}]}
{"smiles": "CCCCCN1CC(=O)N(c2cccc(Cl)c2)[C@@H]2CS(=O)(=O)C[C@@H]21", "values": [{"measurement": "RP-LC retention time", "value": 854, "unit": "s"}]}
{"smiles": "O=C(c1c[nH]c2ccccc12)N1CCCCC1c1nc(C2CC2)no1", "note": "(stereo unspecified)", "values": [{"measurement": "RP-LC retention time", "value": 866, "unit": "s"}]}
{"smiles": "COc1cccc(-c2nc(C3CCN(S(=O)(=O)c4ccccc4)CC3)no2)c1", "values": [{"measurement": "RP-LC retention time", "value": 1070, "unit": "s"}]}
{"smiles": "COc1ccc(CCNC(=O)Nc2nnc(SC)s2)cc1", "values": [{"measurement": "RP-LC retention time", "value": 718, "unit": "s"}]}
{"smiles": "COCCNc1c(C(=O)OC)c(=O)[nH]c2ccc(F)cc12", "values": [{"measurement": "RP-LC retention time", "value": 622, "unit": "s"}]}
{"smiles": "CN1CCN(C2CCN(C(=O)Nc3cc(Oc4ccc(NC(=O)C5(C(=O)Nc6ccc(F)cc6)CC5)c(F)c4)ccn3)CC2)CC1", "values": [{"measurement": "RP-LC retention time", "value": 659, "unit": "s"}]}
{"smiles": "c1ccc(-c2nc(C3CC3)no2)c(OC2CN(Cc3ccncc3)C2)c1", "values": [{"measurement": "RP-LC retention time", "value": 611, "unit": "s"}]}
{"smiles": "CCC(C)C(NC(=O)c1ccsc1)C(=O)Nc1nc2ccccc2[nH]1", "note": "(stereo unspecified)", "values": [{"measurement": "RP-LC retention time", "value": 703, "unit": "s"}]}
{"smiles": "CCOc1ccc(C(=O)N2CCC3(CC2)c2nccn2-c2ccccc2CN3C)cc1", "values": [{"measurement": "RP-LC retention time", "value": 632, "unit": "s"}]}
{"smiles": "COc1ccc(-c2cc3c(=O)n(Cc4nc(-c5cccc(OC)c5OC)oc4C)ccn3n2)cc1", "values": [{"measurement": "RP-LC retention time", "value": 990, "unit": "s"}]}
{"smiles": "O=C(NCc1ccc(Cl)cc1)C1CCCN(S(=O)(=O)c2c[nH]c(C(=O)N3CCCC3)c2)C1", "note": "(stereo unspecified)", "values": [{"measurement": "RP-LC retention time", "value": 800, "unit": "s"}]}
{"smiles": "Cn1c(=O)c2c(nc3n(-c4ccc(O)cc4)c(-c4ccc(Cl)cc4)cn23)n(C)c1=O", "values": [{"measurement": "RP-LC retention time", "value": 813, "unit": "s"}]}
{"smiles": "CC(C)C(=O)NCc1csc(C2CCCN(C(=O)C3CCC3)C2)n1", "note": "(stereo unspecified)", "values": [{"measurement": "RP-LC retention time", "value": 694, "unit": "s"}]}
{"smiles": "Cc1ccc(N2CCC(NC(=O)Cc3ccc(Cl)cc3)C2=O)cc1C", "note": "(stereo unspecified)", "values": [{"measurement": "RP-LC retention time", "value": 946, "unit": "s"}]}
{"smiles": "O=C(NCc1ccco1)C1CCN(c2nc3ccc(-c4cncnc4)nc3s2)CC1", "values": [{"measurement": "RP-LC retention time", "value": 743, "unit": "s"}]}
{"smiles": "COc1ccc(S(=O)(=O)N2C[C@@H](F)C[C@H]2C(=O)N2CCOCC2)cc1OC", "values": [{"measurement": "RP-LC retention time", "value": 640, "unit": "s"}]}
{"smiles": "O=C(NCc1cccs1)C1CCN(c2nc3ccc(Cl)cc3[nH]2)CC1", "values": [{"measurement": "RP-LC retention time", "value": 644, "unit": "s"}]}
{"smiles": "O=C1NCCCn2cc(S(=O)(=O)NCc3ccc(F)cc3Cl)cc21", "values": [{"measurement": "RP-LC retention time", "value": 686, "unit": "s"}]}
{"smiles": "Cn1c(=O)sc2cc(S(=O)(=O)N3CCC(C(=O)NC4CCCCC4)CC3)ccc21", "values": [{"measurement": "RP-LC retention time", "value": 822, "unit": "s"}]}
{"smiles": "Cc1nn(C)c(C)c1S(=O)(=O)N1CCN(C(=O)C(C)Oc2ccccc2)CC1", "note": "(stereo unspecified)", "values": [{"measurement": "RP-LC retention time", "value": 761, "unit": "s"}]}
{"smiles": "CCCCc1ccc(NC(=O)Cn2cnc3c(sc4nc(-c5ccccc5)ccc43)c2=O)cc1", "values": [{"measurement": "RP-LC retention time", "value": 1260, "unit": "s"}]}
{"smiles": "COc1ccc(CNC(=O)c2ccc3c(c2)OCO3)c(OC)c1", "values": [{"measurement": "RP-LC retention time", "value": 749, "unit": "s"}]}
{"smiles": "Cc1cccc(Cn2cc(C(=O)O)c(S(=O)(=O)N3CCSCC3)n2)c1", "values": [{"measurement": "RP-LC retention time", "value": 914, "unit": "s"}]}
{"smiles": "CN(C)S(=O)(=O)c1ccc2c(c1)N(CC(=O)Nc1ccc(Cl)cc1)C(=O)C1CCCCN21", "note": "(stereo unspecified)", "values": [{"measurement": "RP-LC retention time", "value": 988, "unit": "s"}]}
{"smiles": "COc1cc(OC)c(NC(=O)Cn2c(=O)n(-c3ccccc3)c(=O)c3c2cc(C)n3C)cc1Cl", "values": [{"measurement": "RP-LC retention time", "value": 861, "unit": "s"}]}
{"smiles": "Cc1cc(NC(=O)C2=COCCO2)no1", "values": [{"measurement": "RP-LC retention time", "value": 600, "unit": "s"}]}
{"smiles": "O=C(NCc1ccc(Cl)cc1)c1c(O)c2cccnc2[nH]c1=O", "values": [{"measurement": "RP-LC retention time", "value": 1000, "unit": "s"}]}
{"smiles": "COC(=O)c1ncn2c1C(=O)N(Cc1ccc(F)cc1Cl)C(C)(C(=O)NCc1ccccc1)C2", "note": "(stereo unspecified)", "values": [{"measurement": "RP-LC retention time", "value": 771, "unit": "s"}]}
{"smiles": "CCn1cnc(S(=O)(=O)N2CCCC(C(=O)Nc3ccc(F)cc3C)C2)c1", "note": "(stereo unspecified)", "values": [{"measurement": "RP-LC retention time", "value": 726, "unit": "s"}]}
{"smiles": "Cc1nc(CC(=O)Nc2nc(-c3ccc(F)cc3)c(C)s2)cs1", "values": [{"measurement": "RP-LC retention time", "value": 894, "unit": "s"}]}
{"smiles": "O=C(CCCc1ccccc1)N1CCN(c2nc(CN3CCOCC3)cs2)CC1", "values": [{"measurement": "RP-LC retention time", "value": 639, "unit": "s"}]}
{"smiles": "CN1Cc2sccc2C(c2ccc(O)c(O)c2)C1", "note": "(stereo unspecified)", "values": [{"measurement": "RP-LC retention time", "value": 628, "unit": "s"}]}
{"smiles": "Cc1nn(-c2ccc(Cl)cc2)c(C)c1S(=O)(=O)N1CCC(C(=O)N2CCCCC2)CC1", "values": [{"measurement": "RP-LC retention time", "value": 995, "unit": "s"}]}
{"smiles": "Cc1cc2[nH]c(C(=O)Nc3cc(F)c(F)c(F)c3)c(CN3CCOCC3)c2s1", "values": [{"measurement": "RP-LC retention time", "value": 737, "unit": "s"}]}
{"smiles": "O=C(c1cc(-c2cccnc2)n[nH]1)N1CCN(C(=O)C2CCC2)CC1", "values": [{"measurement": "RP-LC retention time", "value": 581, "unit": "s"}]}
{"smiles": "CC1=C(C(=O)Nc2ccc(C(=O)NCCCN3CCN(C4CCCCC4)CC3)cc2)SCCO1", "values": [{"measurement": "RP-LC retention time", "value": 576, "unit": "s"}]}
{"smiles": "CCCN(C)S(=O)(=O)c1cc(-c2nnc(C(C)C)o2)co1", "values": [{"measurement": "RP-LC retention time", "value": 872, "unit": "s"}]}
{"smiles": "COc1cccc(-c2ccc3nc(N4CCC(C(=O)NC(C)C)CC4)sc3n2)c1", "values": [{"measurement": "RP-LC retention time", "value": 895, "unit": "s"}]}
{"smiles": "COc1ccc(OC)c(CNC(=O)C2CCCN2S(=O)(=O)c2cc3c(cc2C)NC(=O)CO3)c1", "note": "(stereo unspecified)", "values": [{"measurement": "RP-LC retention time", "value": 730, "unit": "s"}]}
{"smiles": "COc1cc(C(=O)NCC(=O)Nc2nc3ccccc3[nH]2)cc(OC)c1OC", "values": [{"measurement": "RP-LC retention time", "value": 617, "unit": "s"}]}
{"smiles": "COc1ccc2c(C)c(CCC(=O)N3CCC(C(N)=O)CC3)c(=O)oc2c1C", "values": [{"measurement": "RP-LC retention time", "value": 670, "unit": "s"}]}
{"smiles": "COc1ccc(-c2cn3cccnc3n2)cc1NC(=O)c1cccc(Br)c1", "values": [{"measurement": "RP-LC retention time", "value": 748, "unit": "s"}]}
{"smiles": "Cc1ccc(Cl)cc1NC(=O)C1CC(=O)N(c2ccc3c(c2)CCN3C(=O)C2CC2)C1", "note": "(stereo unspecified)", "values": [{"measurement": "RP-LC retention time", "value": 821, "unit": "s"}]}
{"smiles": "CCSCCOC(=O)C1=C(C)NC2=C(C(=O)C(C(=O)OC)C(C)C2)C1c1cccc(OC)c1", "note": "(stereo unspecified)", "values": [{"measurement": "RP-LC retention time", "value": 968, "unit": "s"}]}
{"smiles": "O=C(c1cccc2[nH]ccc12)N1CCCC(c2n[nH]c(C3CC3)n2)C1", "note": "(stereo unspecified)", "values": [{"measurement": "RP-LC retention time", "value": 606, "unit": "s"}]}
{"smiles": "CCc1nc2cc(-c3noc(Cc4ccc(F)cc4)n3)ccc2o1", "values": [{"measurement": "RP-LC retention time", "value": 1070, "unit": "s"}]}
{"smiles": "CCC(C(=O)NCCc1ccco1)n1c2ccccc2c2cnn(C)c(=O)c21", "note": "(stereo unspecified)", "values": [{"measurement": "RP-LC retention time", "value": 864, "unit": "s"}]}
{"smiles": "CCc1cccc(C)c1Nc1c(-c2ccc(Cl)cc2)nc2nc(C)cc(C)n12", "values": [{"measurement": "RP-LC retention time", "value": 985, "unit": "s"}]}
{"smiles": "CCc1nnc2ccc(NC(=O)Nc3ccc(C)cc3)cn12", "values": [{"measurement": "RP-LC retention time", "value": 710, "unit": "s"}]}
{"smiles": "CNC(=O)CC1CCOC2(CCN(C(=O)C3CC3)CC2)C1", "note": "(stereo unspecified)", "values": [{"measurement": "RP-LC retention time", "value": 580, "unit": "s"}]}
{"smiles": "CCC(=O)N1CCc2cc(N3CC(C(=O)Nc4cccc(F)c4C)CC3=O)ccc21", "note": "(stereo unspecified)", "values": [{"measurement": "RP-LC retention time", "value": 801, "unit": "s"}]}
{"smiles": "CC(C)NC(=O)c1cc(N(C)C)nc2c(Cl)cccc12", "values": [{"measurement": "RP-LC retention time", "value": 816, "unit": "s"}]}
{"smiles": "C=CCN1C(=O)COc2ccc(-c3csc(NC(=O)CC(C)C)n3)cc21", "values": [{"measurement": "RP-LC retention time", "value": 954, "unit": "s"}]}
{"smiles": "Cc1cccc(N2CCN(C(=O)CCC(=O)N3CCCn4nc(-c5cccn5C)cc43)CC2)c1C", "values": [{"measurement": "RP-LC retention time", "value": 968, "unit": "s"}]}
{"smiles": "Cc1ccc(NC(=O)C2CCCN(S(=O)(=O)c3cn(C(C)C)cn3)C2)cc1C", "note": "(stereo unspecified)", "values": [{"measurement": "RP-LC retention time", "value": 829, "unit": "s"}]}
